Assay results from patent US9192560B2, “Stable composition comprising an anti-ageing compound and a solvent” (CHANEL PARFUMS BEAUTE, priority 2012, dated 2015).
Read-outs that look alike come from different tables or passages of the source. Each block holds one molecule with its values, some of them ahead of it.

Columns and labels:
[1] = Stability of diacetylresveratryl thioctate in the formulation with odor absorber; assay type: physicochemical; details: 0.6% odor absorber in Base (0.10% diacetylresveratryl thioctate), two months
Method: A diacetylresveratryl thioctate stability test was carried out for the odor absorbers retained in Example 3, according to the following protocol, for the purpose of confirming the compatibility between the solvent and the odor absorber.

[2] = Study of olfactory stability of Base with odor absorber
Method: A Base composition as follows was prepared. In this composition, octocrylene is used as diacetylresveratryl thioctate-stabilizing solvent.
0.6% of each candidate odor absorber was added to one of the base compositions above and the olfactory stability was tested at three temperatures (ambient temperature, 5° C. and 45° C.) and at the following times: • at the beginning (to), • 1 month (1M), • 2 months (2M) and • 3 months (3M).

[3] = Resveratrol stabilization test in solvents (comparative example); assay type: physicochemical
Method: The stabilization of resveratrol by dimethyl isosorbide, ethylhexyl methoxycrylene and octocrylene was evaluated according to the same protocol as Example 1-a, except that the solubility was evaluated on the same day as to (0D).

[4] = Diacetylresveratryl thioctate stabilization test in candidate solvents (solubility at t0 and a day later); details: for Solubility 1 D/AT / Solubility t0/AT: diacetylresveratryl thioctate in the named solvent, ambient temperature; for Solubility 1 D/AT: a day later; for Solubility t0/AT: initial; for Stability: stabilization of diacetylresveratryl thioctate by the named solvent
Method: The term “stabilization” is intended to mean an absence of crystallization of diacetylresveratryl thioctate after 10 days at 4° C. and six months at AT.
The candidate solvents thus chosen are then subjected to the stabilization test. This test consists in comparing the initial solubility (t0) and the solubility a day later (1D) at ambient temperature (AT).

[5] = listed as ethylhexyl methoxycrylene

Molecule: O=C1CC[C@@H](C(=O)[O-])N1.O=C1CC[C@@H](C(=O)[O-])N1.[Cu+2] [Copper L-pyrrolidone carboxylate salt]
degree of diacetylresveratryl thioctate stabilization 5° C. ([1]; 5° C.): 0.1
degree of diacetylresveratryl thioctate stabilization 45° C. ([1]; 45° C.): 0.094
olfactory stability 1 M ([2]; 0.6% odor absorber in Base, 1 month, identical at AT, 5° C. and 45° C.): Yes
olfactory stability 2 M 5° C. ([2]; 0.6% odor absorber in Base, 2 months, 5° C.): Yes
olfactory stability 2 M 45° C. ([2]; 0.6% odor absorber in Base, 2 months, 45° C.): Yes
olfactory stability 2 M AT ([2]; 0.6% odor absorber in Base, 2 months, ambient temperature): Yes
olfactory stability 3 M ([2]; 0.6% odor absorber in Base, 3 months, identical at AT, 5° C. and 45° C.): Yes
olfactory stability t0 ([2]; 0.6% odor absorber in Base, identical at AT, 5° C. and 45° C.): Yes
olfactory stability, overall conclusion ([2]; odor absorber in combination with the Base, up to 3 months): the most appropriate

Molecule: CO[C@H]1CO[C@H]2[C@@H]1OC[C@H]2OC [Dimethyl isosorbide]
Solubility t0/AT ([3]; resveratrol in the named solvent, initial, ambient temperature): Partially soluble
Solubility 0 D/AT ([3]; resveratrol in the named solvent, same day, ambient temperature): Precipitate
Stability ([3]; stabilization of resveratrol by the named solvent): No
Solubility 1 D/AT [4]: Clear
Solubility t0/AT [4]: Partially soluble
Solubility t0/AT ([4]; listed as dimethyl isosorbide): partially soluble
Stability [4]: Yes

Molecule: CCCCC(CC)COC(=O)C(C#N)=C(c1ccccc1)c1ccc(OC)cc1 (stereo not shown) [Ethylhexyl methoxycrylene]
Solubility 0 D/AT [3]: Precipitate
Solubility t0/AT [3]: Soluble fraction
Stability [3]: No
Solubility 1 D/AT [4]: Clear
Solubility t0/AT [4]: Partially soluble
Solubility t0/AT [4, 5]: partially soluble
Stability [4]: Yes
Stability [4, 5]: particularly satisfactory

Molecule: O=C(Oc1ccccc1)c1ccccc1 [Phenyl benzoate]
Solubility 1 D/AT [4]: Clear
Solubility t0/AT [4]: Partially soluble
Solubility t0/AT ([4]; listed as phenyl benzoate): partially soluble
Stability [4]: Yes

Molecule: CCCCCCCCOC(=O)c1ccc(C(=O)OCCCCCCCC)c(C(=O)OCCCCCCCC)c1 [Trioctyl trimellitate]
Solubility 1 D/AT [4]: Clear
Solubility t0/AT [4]: Partially soluble
Solubility t0/AT ([4]; listed as trioctyl trimellitate): partially soluble
Stability [4]: Yes

Next, values leading:

Solubility 0 D/AT [3]: Precipitate
Solubility t0/AT [3]: Soluble fraction
Stability [3]: No
Molecule: CCCCC(CC)COC(=O)C(C#N)=C(c1ccccc1)c1ccccc1 (stereo not shown) [Octocrylene]

Solubility 1 D/AT [4]: Precipitate
Solubility t0/AT [4]: Insoluble
stability of diacetylresveratryl thioctate solubilized in a conventional solvent ([4]; general observation of the applicant): recrystallizes
Stability [4]: No
Molecule: CCCCCCCCCCC(CO)CCCCCCCC (stereo not shown) [Octyldodecanol]

olfactory stability t0 [2]: Yes
Molecule: Kaolin
